IC50 data for eight compounds are collected here from patent publication US6831199B1, “Pyrimidine compounds and derivatives thereof” (G. D. Searle & Co., priority 1995, dated 2004).

Where a name gives a salt, the structure may show the parent alone. Some results are limits rather than exact numbers.

The target of test [1] is T1, Human vitronectin receptor (αvβ3) (Homo sapiens, UniProt P05106+P06756).
T1 construct: Human vitronectin receptor (αvβ3) was purified from human placenta; from tissue; host or cells: human placenta
Kind of test: Vitronectin adhesion assay (solid phase receptor assay, competition with biotinylated vitronectin). Format: binding. To be noted: read-out: AvB3 IC50. The method, boiled down:
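Purified human αvβ3 coated overnight at 4 °C in TBS with 1.0 mM Ca++, Mg++, Mn++, pH 7.4; compounds (top final 1.0×10^−4 M) competed with 1 nM biotinylated vitronectin for 2 h at room temperature. Bound ligand detected by HRP anti-biotin/OPD at A450; values normalized to no-competitor controls, four-parameter curve fit.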

The test system of a further test is platelet rich plasma. Briefly: Human platelet rich plasma assay (ADP induced platelet aggregation). The settings on record: Homo sapiens, Platelet, ADP induced platelet aggregation in human platelet rich plasma; read-out: Human PRP. It is filed as cell-based. A digest of the protocol:
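Citrated platelet-rich plasma from aspirin-free healthy human donors was stirred at 37 °C and preincubated with compound for 1 min. Aggregation was then triggered with ADP (added as a 200 uM solution) and recorded photometrically for 3 min. Dose–response curves were built from % inhibition of the maximal saline-control response.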

The next test deals with M21 human melanoma cells. Briefly: M21 melanoma cell adhesion assay (αvβ3-dependent adhesion to human fibrinogen-coated plates). Format: cell-based. The settings on record: Homo sapiens, M21; read-out: M21 Melanoma Cells IC50.

Regarding `Cc1ccc(C(=O)NCC(=O)NC(CC(=O)O)c2cccnc2)cc1NC(=N)N` (racemic) [Example 83, (±)β-[[2-[[[3-[(aminoiminomethyl)amino]-4-methylphenyl]carbonyl]amino]acetyl]amino]pyridine-3-propanoic acid, bis(trifluoroacetate)salt], the IC50 was 3.39 nM in test [1], over 200000 nM in the test with platelet rich plasma and 11 nM in the test with M21 human melanoma cells.
`C#C[C@H](CC(=O)O)NC(=O)CNC(=O)c1cccc(NC2=NCCCCC2)c1` [Example 30, βS-[[2-[[[3-[(3,4,5,6-tetrahydro-2H-azepin-7-yl)amino]phenyl]carbonyl]amino]acetyl]amino]-4-pentynoic acid, trifluoroacetate salt]: the IC50 in test [1] was 1.75 nM; in the test with platelet rich plasma it was over 200000 nM; in the test with M21 human melanoma cells, 320 nM.
For `O=C(O)CC(NC(=O)CNC(=O)c1cccc(NC2=NCCCCC2)c1)c1ccccc1` (racemic) [Example 15, (±)β-[[2-[[[3-[(3,4,5,6-tetrahydro-2H-azepin-7-yl)amino]phenyl]carbonyl]amino]acetyl]amino]benzenepropanoic acid, trifluoroacetate salt], in that order: 10.2 nM, over 200000 nM and 202 nM.
For `Cc1ccc(SCCC(CC(=O)O)NC(=O)CNC(=O)c2cccc(NC(=N)N)c2)cc1` (racemic) [Example 66, (±)3-[[2-[[[3-[(aminoiminomethyl)amino]phenyl]carbonyl]amino]acetyl]amino]-5-[(4-methylphenyl)thio]pentanoic acid, trifluoroacetate salt], in that order: 1.44 nM, over 100000 nM and 2.51 nM.
Take `N=C(N)Nc1cccc(C(=O)NCC(=O)N[C@@H](CC(=O)O)CS(=O)(=O)c2ccccc2C(=O)O)c1` [Example 71, 2-[[2S-[[2-[[[3-[(aminoiminomethyl)amino]phenyl]carbonyl]amino]acetyl]amino]-2-(carboxymethyl)ethyl]sulfonyl]benzoic acid, TFA salt]: the IC50 in test [1] was 20.4 nM; with platelet rich plasma, over 200000 nM; in the test with M21 human melanoma cells, 1040 nM.
For `N=C(N)Nc1cccc(C(=O)NCC(=O)NC(CC(=O)O)c2cnc3ccccc3c2)c1` (stereo not drawn) [Example 99, β-[[2-[[[3-[(aminoiminomethyl)amino]phenyl]carbonyl]amino]acetyl]amino]quinoline-3-propanoic acid, bis(trifluoroacetate)salt], in that order: 0.38 nM, 57500 nM and 0.49 nM.
Take `O=C(O)CC(NC(=O)CNC(=O)c1cccc(NC2=NCCN2)c1)c1cccnc1` (racemic) [Example 10, (±)β-[[2-[[[3-[(4,5-dihydro-1H-imidazol-2-yl)amino]phenyl]carbonyl]amino]acetyl]amino]pyridine-3-propanoic acid, bis(trifluoroacetate)salt]: the IC50 in test [1] was 0.92 nM; in the test on platelet rich plasma, over 200000 nM; in the test with M21 human melanoma cells it was 1.82 nM.
Taken in the same sequence, the figures for `N=C(N)Nc1cccc(C(=O)NCC(=O)NC(CC(=O)O)c2ccsc2)c1` (racemic) [Example 59, (±)β-[[2-[[[3-[(aminoiminomethyl)amino]phenyl]carbonyl]amino]acetyl]amino]thiophene-3-propanoic acid, trifluoroacetate salt] were 2.35 nM, over 200000 nM and 24.3 nM.
